Laboratory results published in patent US20110183951A1, “Copper (1) Complex” (priority 2006, published 2011).

Tests used:
[1] = test system: rats; experiment: Bioavailability studies on rats (liver and kidney functions, blood picture, lipid profile); assay type: in vivo
From the text: The study on rats included five groups, group 1 control, 2 receiving cu, group.2 pyrazinic, group 3 complex with large dose, & group 5 receiving complex with small dose.

[2] = Physical properties: stability of the complex; assay type: physicochemical; conditions: solid, when well-dried
[3] = Physical properties: solubility of the complex; assay type: physicochemical
From the text: Solubility: the complex is insoluble in non-polar solvents, e.g. benzene, carbon tetrachloride, etc., and insoluble in polar solvents: water, methanol, ethanol, acetone, but soluble in these solvents upon heating in inert atmosphere, to prevent oxidation.

[4] = test system: rats; experiment: Toxicity of the complex (LD50, mortality within 24 hrs); assay type: in vivo
Experimental: Seventy two rats (250+/−2.0 g b.wt) were randomly located into 12 groups of 6 rats each.
Mortality in each group were recorded within 24 hrs.

[5] = test system: male infertility (sperm count, motility); experiment: Male infertility study, 20 patients; assay type: in vivo, human
[6] = test system: dilated Cardiomyopathy; experiment: Clinical trials in cardiomyopathy; assay type: in vivo, human; conditions: clinically and in ECHO cardiographic measurements
From the text: Improvement is shown both clinically and in the ECHO cardiographic measurements.

[7] = test system: muscle weakness (muscle dystrophies, post stroke weakness); experiment: Clinical trials for treatment of weakness of muscles; assay type: in vivo, human
From the text: The complex used in treatment of muscle weakness for different underlying causes (muscle dystrophies post stroke weakness). […] When the patient reaches the optimum dose, onset of improvement in muscle power is observed within hours of drug intake.

[8] = test system: fatigue; experiment: Clinical trials for treatment of fatigue in humans; assay type: in vivo
[9] = test system: stem cell differentiation; experiment: In vivo stem cell, CD4 and CD8 counts before and during medication; conditions: before and at regular intervals of medication
From the text: We hypothesized that the drug may have a role in stimulating the stem cells present in the various organs to differentiate. […] In vivo we measured the stem cell count together with CD8 and CD4 cells before, and at regular intervals of medication.

In the case of `O=C(O)c1cnccn1` [pyrazinic, pyrazinic acid, reference compound], the Lipid profile [1] is reported as “didn't show significant difference” and the “liver and kidney functions versus control” value [1] is reported as “no significant difference”.

In the case of [CuCI (pyrazinic acid)2].2H2O [complex], the Lipid profile [1] is reported as “didn't show significant difference”, the “liver and kidney functions versus control” value [1] is reported as “no significant difference” and the “lymphocytic count (complete blood picture)” value ([1]; large and small dose groups, not exceeding the normal range) is reported as “increase of lymphocytic count”. For the same compound, the Stability [2] was “sufficiently stable when well-dried”, the “Solubility in non-polar solvents” value ([3]; e.g. benzene, carbon tetrachloride) was “insoluble” and the “Solubility in polar solvents upon heating” value ([3]; upon heating in inert atmosphere) was “soluble”. For the same compound, the “Solubility in polar solvents” value ([3]; water, methanol, ethanol, acetone) was “insoluble”, the “LD50 (intrapperitoneally)” value ([4]; intraperitoneal) was 128 mg/kg and the “LD50 (oral)” value ([4]; oral) was 1104.17 mg/kg. For the same compound, the sperm motility ([5]; all cases) was “significant improvement of motility”, the “azospermic patients who got healthy babies” value ([5]; among the responders) was “two of them got healthy babies” and the “oligospermia cases who got healthy babies” value ([5]; human, in vivo) was “four cases got also healthy babies”. For the same compound, the “sperm count in azospermic patients after treatment” value ([5]; responders, within 6 weeks of treatment) was 1.5-3 millions/hpf, the “sperm count in Oligospermia” value ([5]; within 1 month of treatment) was “doubling of the count” and the “azospermic patients whose count increased” value ([5]; within 6 weeks of treatment) was “seven out of nine”. The “cases improved, dilated cardiomyopathy due to other causes” value [6] was 80%, the “improvement of dilated Cardiomyopathy secondary to Duchenne muscle dystrophy” value [6] was “improved all cases” and the “Clinical improvement in DMS patients” value ([7]; affected by age, weight and degree of dystrophy) was “dose dependant”. For the same compound, the “onset of improvement in muscle power” value ([7]; at optimum dose, after drug intake) was “within hours”, the muscle pain ([8]; all types of fatigue) was “relieved the muscle pain” and the “physical activity and productivity” value ([8]; all types of fatigue) was “increased the physical activity and productivity”. For the same compound, the “agonizing fatigue in Parkinsonism, myositis, disseminated sclerosis” value ([8]; human, in vivo) was “improves markedly”, the CD4/CD8 [9] was “no disturbance” and the “CD4 and CD8 number” value [9] was “increase”. For the same compound, the stem cell count [9] was “significant decrease”.
